Among the data in PubChem BioAssay AID1259407 (Chemical Carcinogenesis Research Information System (CCRIS), 2018) are mutagenic call values, retold here.

This series deals with CCRIS mutagenicity, Ames/micronucleus/aberration tests. Briefly: CCRIS mutagenicity studies.
Setting [1] is: Test System: AMES SALMONELLA TYPHIMURIUM, Strain/Indicator: TA98, Metabolic Activation: NONE, Method: PREINCUBATION
Where [2] appears, read: Test System: AMES SALMONELLA TYPHIMURIUM, Strain/Indicator: TA100, Metabolic Activation: NONE, Method: PREINCUBATION
Setting [3] is: Test System: AMES SALMONELLA TYPHIMURIUM, Strain/Indicator: TA98, Metabolic Activation: NONE, Method: STANDARD PLATE.
[4] abbreviates: Test System: AMES SALMONELLA TYPHIMURIUM, Strain/Indicator: TA100, Metabolic Activation: NONE, Method: STANDARD PLATE.

Calls of active or inactive are those of the source. No rule for the calls is given here.

As for `CC(C)(N=O)[N+](=O)[O-]`, the mutagenic call is “active; positive” under setting [1]; “inactive; negative” (Test System: AMES SALMONELLA TYPHIMURIUM, Strain/Indicator: TA98, Metabolic Activation: RAT, LIVER, S-9, AROCLOR, Method: PREINCUBATION); “inactive; negative” under setting [2]; “inactive; negative” (Test System: AMES SALMONELLA TYPHIMURIUM, Strain/Indicator: TA100, Metabolic Activation: RAT, LIVER, S-9, AROCLOR, Method: PREINCUBATION); “inactive; negative” (Test System: AMES SALMONELLA TYPHIMURIUM, Strain/Indicator: TA102, Metabolic Activation: NONE, Method: PREINCUBATION); “inactive; negative” (Test System: AMES SALMONELLA TYPHIMURIUM, Strain/Indicator: TA102, Metabolic Activation: RAT, LIVER, S-9, AROCLOR, Method: PREINCUBATION).
Regarding `O=c1c2c(O)cc(O)cc2oc2c(O)ccc(O[C@@H]3O[C@H](CO)[C@@H](O)[C@H](O)[C@H]3O)c12`, the mutagenic call (Test System: AMES SALMONELLA TYPHIMURIUM, Strain/Indicator: TA97, Metabolic Activation: RAT, LIVER, S-9, PHENOBARBITAL AND 5,6-BENZOFLAVONE, BETA-GLUCOSIDASE, Method: PREINCUBATION) is “active; positive”; the mutagenic call (Test System: AMES SALMONELLA TYPHIMURIUM, Strain/Indicator: TA98, Metabolic Activation: RAT, LIVER, S-9, PHENOBARBITAL AND 5,6-BENZOFLAVONE, BETA-GLUCOSIDASE, Method: PREINCUBATION) was “inactive; negative”; the mutagenic call (Test System: AMES SALMONELLA TYPHIMURIUM, Strain/Indicator: TA100, Metabolic Activation: RAT, LIVER, S-9, PHENOBARBITAL AND 5,6-BENZOFLAVONE, BETA-GLUCOSIDASE, Method: PREINCUBATION) is “active; positive”; the mutagenic call (Test System: AMES SALMONELLA TYPHIMURIUM, Strain/Indicator: TA2637, Metabolic Activation: RAT, LIVER, S-9, PHENOBARBITAL AND 5,6-BENZOFLAVONE, BETA-GLUCOSIDASE, Method: PREINCUBATION) was “active; positive”.
Regarding `ClCc1cc2cccc3ccc4cc5ccccc5c1c4c32`, the mutagenic call is, setting by setting: under setting [3], “active; positive”; under setting [4], “active; positive”.
`Cc1ncc(CNC(=O)N(CCCl)N=O)c(N)n1`: the mutagenic call by setting is: under setting [3], “active; positive”; under setting [4], “active; positive”; (Test System: E. COLI, Strain/Indicator: WP2 (HCR), Metabolic Activation: NONE, Method: STANDARD PLATE) “active; positive”.
With `Cc1ccc2c(=O)c3cccc4ccc1c2c43`, the mutagenic call (Test System: AMES SALMONELLA TYPHIMURIUM, Strain/Indicator: TA100, Metabolic Activation: RAT, LIVER, S-9, AROCLOR 1254, Method: STANDARD PLATE) was “active; positive”.
Take `COC(=O)C1=C(C)NC(COC(N)=O)=C(C(=O)OC(C)C)C1c1cccc(Cl)c1Cl` (stereo unspecified): the mutagenic call is “inactive; negative” under setting [1]; “inactive; negative” (Test System: AMES SALMONELLA TYPHIMURIUM, Strain/Indicator: TA98, Metabolic Activation: RAT, LIVER, S-9, PHENOBARBITAL AND 5,6-BENZOFLAVONE, Method: PREINCUBATION); “inactive; negative” under setting [2]; “inactive; negative” (Test System: AMES SALMONELLA TYPHIMURIUM, Strain/Indicator: TA100, Metabolic Activation: RAT, LIVER, S-9, PHENOBARBITAL AND 5,6-BENZOFLAVONE, Method: PREINCUBATION); “inactive; negative” (Test System: AMES SALMONELLA TYPHIMURIUM, Strain/Indicator: TA1535, Metabolic Activation: NONE, Method: PREINCUBATION); “inactive; negative” (Test System: AMES SALMONELLA TYPHIMURIUM, Strain/Indicator: TA1535, Metabolic Activation: RAT, LIVER, S-9, PHENOBARBITAL AND 5,6-BENZOFLAVONE, Method: PREINCUBATION). Besides, the mutagenic call (Test System: AMES SALMONELLA TYPHIMURIUM, Strain/Indicator: TA1537, Metabolic Activation: NONE, Method: PREINCUBATION) was “inactive; negative”; the mutagenic call (Test System: AMES SALMONELLA TYPHIMURIUM, Strain/Indicator: TA1537, Metabolic Activation: RAT, LIVER, S-9, PHENOBARBITAL AND 5,6-BENZOFLAVONE, Method: PREINCUBATION) was “inactive; negative”; the mutagenic call (Test System: E. COLI, Strain/Indicator: WP2 UVRA, Metabolic Activation: NONE, Method: PREINCUBATION) was “inactive; negative”; the mutagenic call (Test System: E. COLI, Strain/Indicator: WP2 UVRA, Metabolic Activation: RAT, LIVER, S-9, PHENOBARBITAL AND 5,6-BENZOFLAVONE, Method: PREINCUBATION) was “inactive; negative”.
